Laboratory results as given in patent publication US20060210478A1, “Steady state perfusion methods” (priority 2005, published 2006).

Columns and labels:
[1] = tested on: domestic pig; conditions: pig with 80-90% LCX stenosis, 0.05 mmol/kg i.v.
Description: A domestic pig (approx 50 kg B.W.) is anesthetized and intubated. The animal undergoes surgical intervention to partially occlude the distal portion of the left circumflex coronary artery (LCX). A calibrated angioplasty balloon is delivered by catheter, guided by X-ray fluoroscopy, from the femoral artery to the heart. It is advanced into the left circumflex coronary artery and inflated to create the equivalent of an 80-90% stenosis. The balloon catheter will remain inflated and at a constant inflation pressure for the duration of the imaging procedure, to simulate a static lesion and stenosis in the coronary artery.
The pig is then transported to the MRI suite and remains under general anesthesia and intubated for the duration of the imaging examination. Sufficient MRI scout scans to plan the myocardial imaging are acquired. Then 0.05 mmol/kg of MS-325 is administered as a single intraveneous injection. Enough time (ca. 10 minutes) for the agent to achieve equilibrium in the blood elapses before imaging commences.
Perfusion imaging is performed using a saturation-recovery gradient echo methods in order to sensitize the MRI to the lowered T1 of the imaging agent. Three short-axis slices (7.5 mm, with 7.5 mm slice separations) are acquired, so that 16 of the 17 AHA/ACC myocardial segments can be visualized. […]

[2] = tested on: domestic pig; conditions: pig with 80-90% LCX stenosis; 0.05 mmol/kg i.v.; 0.25 mg/kg/min adenosine; confirmed by fluorescent microspheres post-mortem
Description: (§1) A domestic pig (approx 60 kg B.W.) is anesthetized and intubated. The animal undergoes surgical intervention to partially occlude the distal portion of the left circumflex coronary artery (LCX). A calibrated angioplasty balloon is delivered by catheter, guided by X-ray fluoroscopy, from the femoral artery to the heart. It is advanced into the Left Circumflex coronary artery and inflated to create the equivalent of an 80-90% stenosis. The balloon catheter will remain inflated and at a constant inflation pressure for the duration of the imaging procedure, to simulate a static lesion and stenosis in the coronary artery.
The pig is then transported to the MRI suite and remains under general anesthesia and intubated for the duration of the imaging examination. Sufficient MRI scout scans to plan the myocardial imaging are aquired. […] Enough time (ca. 10 minutes) for the agent to achieve equilibrium in the blood elapses before perfusion imaging commences.
Perfusion imaging is performed using a gradient echo method in order to sensitize the MRI to the lowered T1 of the imaging agent (TR=3.2 ms, FA=12°). Three short-axis 10 mm slices are acquired, so that 16 of the 17 AHA/ACC myocardial segments can be visualized. In this implementation, cardiac-triggering is employed to control heart motion and breathing is suspended to eliminate diaphragmatic motion. […]

[3] = tested on: domestic pig; conditions: pig with 80-90% LCX stenosis; 0.05 mmol/kg i.v.; 0.25 mg/kg/min adenosine; confirmed by fluorescent microspheres post-mortem; remark: listed apart in the source
Description: as §1
The pig is then transported to the MRI suite and remains under general anesthesia and intubated for the duration of the imaging examination. Sufficient MRI scout scans to plan the myocardial imaging are aquired. 0.05 mmol/kg of MS-325 is administered as a single intraveneous injection. Enough time (ca. 10 minutes) for the agent to achieve equilibrium in the blood elapses before perfusion imaging.
Perfusion imaging is performed using a gradient echo method in order to sensitize the MRI to the lowered T1 of the imaging agent (TR=5.0 ms, FA=12°). Three 10 mm short-axis slices are acquired, so that 16 of the 17 AHA/ACC myocardial segments can be visualized. […]

O=C([O-])CN(CCN(CC(=O)[O-])C[C@H](COP(=O)([O-])OC1CCC(c2ccccc2)(c2ccccc2)CC1)N(CC(=O)[O-])CC(=O)[O-])CC(=O)[O-].[Gd+3].[H+].[H+].[H+] [MS-325]
Corresponding image during stress ([1]; after 5 minutes of 0.25 mg/kg/min adenosine infusion): a greater degree of negative contrast with the remaining myocardial wall | Analysis of MR images (perfusion imaging at rest) ([1]; imaging ca. 10 minutes after injection, before adenosine): a suspicious hypo-intense region in the anterior wall of the left ventrical | Analysis of MR images during vasodilatory stress [2]: a hypo-intense region in the wall of the left ventricle | Analysis of MR images during adenosine stress [3]: a hypo-intense region in the myocardial wall
